System: Rat Model of Neuropathic Pain
Test: Mechanic pain test (Randall-Sellitio method) in a rat model of neuropathic pain (loose ligation of the right sciatic nerve)
Format: in vivo
Conditions: i.p., 40, 60 mg/kg equivalent of milnacipran, 15 days after surgery, tested for 2 h every 30 min, compared with milnacipran
Protocol: The Effect of Milnacipran and Formula I (1-1) on Nociception in a Rat Model of Neuropathic Pain
After the preoperative pain thresholds of rats determined by mechanic pain test (Randall-Sellitio method), peripheric neuropathy was formed by loose ligating the right sciatic nevre. An identical procedure was performed without ligating on the left side (sham-operation). 15 days after surgical procedure postoperative pain thresholds were determined and saline and drugs were administered via intraperitoneal (i.p) route. Drugs groups were planned as milnacipran (40, 60, 80 mg/kg), Formula I (1-1) (20, 40, 60 mg/kg equivalent of milnacipran), After saline and drug injection, the test was repeated for 2 h in every 30 min. Pain thresholds were given as mean, SEM from % values. Spontaneous locomotor activity was measured by an activity cage and movements were quantified as the total of ambulatory and stereotypic behaviour. Statistical evaluation was made with one way variance analysis (ANOVA) followed by LSD test.

Compound: CCN(CC)C(=O)[C@]1(c2ccccc2)CC1CNC(=O)CCCC[C@]1(C)CCSS1 (stereo partly shown) [Formula I (1-1)]
- antinociceptive effect (pain thresholds): more potent antinociceptive effect

Source: patent US9233161B2, “Compositions and methods for the treatment of neurological conditions” (CELLIX BIO PRIVATE LIMITED, priority 2012, dated 2016)
